PubChem BioAssay (NCI)
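Step 1: Grow cells in 96-well plates. Step 2: Expose to compound for 48 hours at 5 concentrations. Step 3: Interpolate endpoints linearly; if unreached, use highest concentration. GI50 marks 50% less growth. TGI marks complete inhibition of growth.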

Assays:
Assay in all cases: inhibition of tumour cell growth, NCI panel, 48 h
UACC-257 melanoma = test system: UACC-257 melanoma
A498 renal = test system: A498 renal
COLO 205 colon = test system: COLO 205 colon
HCC-2998 colon = test system: HCC-2998 colon
SNB-19 CNS = test system: SNB-19 CNS
OVCAR-4 ovarian = test system: OVCAR-4 ovarian
UACC-62 melanoma = test system: UACC-62 melanoma
MDA-MB-435 = test system: MDA-MB-435
OVCAR-3 ovarian = test system: OVCAR-3 ovarian
SW-620 colon = test system: SW-620 colon
K-562 leukemia = test system: K-562 leukemia
EKVX NSCLC = test system: EKVX NSCLC
DU-145 prostate = test system: DU-145 prostate
SK-MEL-5 melanoma = test system: SK-MEL-5 melanoma
TK-10 renal = test system: TK-10 renal
HCT-116 colon = test system: HCT-116 colon
SN12C renal = test system: SN12C renal
CCRF-CEM leukemia = test system: CCRF-CEM leukemia
786-0 renal = test system: 786-0 renal
MDA-MB-231 breast = test system: MDA-MB-231 breast
BT-549 breast = test system: BT-549 breast
NCI-H460 lung = test system: NCI-H460 lung
T-47D breast = test system: T-47D breast
CAKI-1 renal = test system: CAKI-1 renal
KM12 colon = test system: KM12 colon
SF-539 CNS = test system: SF-539 CNS
OVCAR-5 ovarian = test system: OVCAR-5 ovarian

Clc1cccc(/C=N/Nc2nc(N/N=C/c3cccc(Cl)c3)nc(N3CCOCC3)n2)c1
GI50 (UACC-257 melanoma): 2.47 µM
TGI (UACC-257 melanoma): 6.52 µM
GI50 (A498 renal): 1.67 µM
TGI (A498 renal): 5.65 µM
GI50 (COLO 205 colon): 1.23 µM
TGI (COLO 205 colon): > 100 µM
GI50 (HCC-2998 colon): 2.73 µM
TGI (HCC-2998 colon): > 100 µM
GI50 (SNB-19 CNS): 37 µM
TGI (SNB-19 CNS): > 100 µM
GI50 (OVCAR-4 ovarian): 5.82 µM
TGI (OVCAR-4 ovarian): > 100 µM
GI50 (UACC-62 melanoma): 4.54 µM
TGI (UACC-62 melanoma): > 100 µM
GI50 (MDA-MB-435): 4.24 µM
TGI (MDA-MB-435): > 100 µM
GI50 (OVCAR-3 ovarian): 2.87 µM
TGI (OVCAR-3 ovarian): 59.9 µM
GI50 (SW-620 colon): 1.78 µM
TGI (SW-620 colon): > 100 µM
GI50 (K-562 leukemia): 0.699 µM
TGI (K-562 leukemia): 7.65 µM
GI50 (EKVX NSCLC): 4.23 µM
TGI (EKVX NSCLC): > 100 µM
GI50 (DU-145 prostate): 2.62 µM
TGI (DU-145 prostate): > 100 µM
GI50 (SK-MEL-5 melanoma): 1.72 µM
TGI (SK-MEL-5 melanoma): 3.44 µM
GI50 (TK-10 renal): 5.89 µM
TGI (TK-10 renal): > 100 µM
GI50 (HCT-116 colon): 1.27 µM
TGI (HCT-116 colon): > 100 µM
GI50 (SN12C renal): 4.99 µM
TGI (SN12C renal): > 100 µM
GI50 (CCRF-CEM leukemia): 1.34 µM
TGI (CCRF-CEM leukemia): 6.6 µM
GI50 (786-0 renal): 1.07 µM
TGI (786-0 renal): 4.12 µM
GI50 (MDA-MB-231 breast): 9.16 µM
TGI (MDA-MB-231 breast): > 100 µM
GI50 (BT-549 breast): 3.22 µM
TGI (BT-549 breast): > 100 µM
GI50 (NCI-H460 lung): 3.47 µM
TGI (NCI-H460 lung): > 100 µM
GI50 (T-47D breast): 3.54 µM
TGI (T-47D breast): > 100 µM
GI50 (CAKI-1 renal): 2.77 µM
TGI (CAKI-1 renal): > 100 µM
GI50 (KM12 colon): 3.61 µM
TGI (KM12 colon): > 100 µM
GI50 (SF-539 CNS): 5.39 µM
TGI (SF-539 CNS): > 100 µM
GI50 (OVCAR-5 ovarian): > 100 µM
TGI (OVCAR-5 ovarian): > 100 µM
